Measured values as given in patent publication US20240398807A1, “COMPOSITIONS AND METHODS OF TREATING KIDNEY DISEASE AND FIBROSIS” (Mitokinin, Inc., priority 2020, published 2024).
“Also recorded” adds a separate entry of the source.

Legend:
[1] = body weight loss in cisplatin-challenged mice; format: in vivo, mice (C57Bl/6)
Protocol: Referring to FIG. 9, mice (C57Bl/6) were challenged with a single intraperitoneal dose of 10 mg/kg cisplatin or saline (not shown) and dosed by oral gavage once per day (QD) with 35985.

[2] = tested on: PINK1; assay: Western blot for PINK1 in kidney mitochondrial preparations; format: in vivo, mice (C57Bl/6); conditions: C57Bl/6; single i.p. 30 mg/kg cisplatin; FIG. 3B
Protocol: Kidneys were removed from -80° C. and minced on an ice block. Minced tissues were transferred to a dounce homogenizer and homogenized with 20× strokes of the 'loose' pestle and 20× strokes of the 'tight' pestle using 1 ml ul of cold mitochondrial isolation buffer (MIB, 50 mM Tris-HCl (pH 7.5), 70 mM sucrose, 210 mM sorbitol, 1 mM EDTA, 1 mM EGTA, 100 mM chloroacetamide, HaltTM Protease and Phosphatase Inhibitor Cocktail, EDTA-free (100×) (PI), 10 μM PR619). Kidney homogenate was transferred to a 1.5 ml Eppendorf tube and were centrifuged at 300×g for 5 min at 4° C. Approximately 800 ul of supernatant was transferred to a new 1.5 ml microcentrifuge tube. The supernatant (cytosol+mitochondria) was transferred to a new tube and centrifuged at 10,000 g for 20 min at 4° C. to pellet the mitochondrial fraction. […] The total protein concentration of kidney mitopreps was measured with the Thermo Scientific Pierce BCA Protein Assay Kit (Thermo Scientific), according to its product manual. […] For each lane of a 26 well gel (4-20% CriterionTM Tris-HCl Protein Gel, Bio-Rad Laboratories), 10 μg per sample was loaded and analyzed by Western Blotting. Indicated bands were quantified using ImageStudio Lite and normalized to beta actin band intensity. […]

[3] = tested on: mitochondrial DNA; assay: kidney mtDNA/nucDNA ratio by qPCR; format: in vivo
Protocol: A small piece of frozen kidney tissue (˜12 mg) was homogenized and DNA extracted using the Qiagen QIAamp DNA mini kit. mtDNA/nucDNA ratio was determined using a qPCR protocol from the Aurwex lab (Quiros et al, 2017), using the following primers: 16S rRNA 5′-[…]-3′(SEQ ID NO:11) and 5′-[…]-3′ (SEQ ID NO:12); ND1 5′-[…]-3′ (SEQ ID NO: 13) and: 5′-[…]-3 (SEQ ID NO:14); HK2 5′-[…]-3′ (SEQ ID NO:15) and 5′-[…]-3′ (SEQ ID NO:16).
Referring to FIG. 4, mice (C57Bl/6) were challenged with a single intraperitoneal dose of 10 mg/kg cisplatin. Tissue lysates were examined for mitochondrial gene ND1 and nuclear gene beta actin by quantitative PCR.
Referring to FIG. 12, mice (C57Bl/6) were challenged with a single intraperitoneal dose of 10 mg/kg cisplatin and dosed by oral gavage, once per day (QD) for seven days with 35985.

[4] = tested on: pS65-Ub; assay: pS65-Ub ELISA of kidney mitochondrial preparations; format: in vivo, mice (C57Bl/6); conditions: single i.p. 30 mg/kg cisplatin
Protocol: Kidneys were removed from -80° C. and minced on an ice block. Minced tissues were transferred to a dounce homogenizer and homogenized with 20× strokes of the 'loose' pestle and 20× strokes of the 'tight' pestle using 1 ml ul of cold mitochondrial isolation buffer (MIB, 50 mM Tris-HCl (pH 7.5), 70 mM sucrose, 210 mM sorbitol, 1 mM EDTA, 1 mM EGTA, 100 mM chloroacetamide, HaltTM Protease and Phosphatase Inhibitor Cocktail, EDTA-free (100×) (PI), 10 μM PR619). Kidney homogenate was transferred to a 1.5 ml Eppendorf tube and were centrifuged at 300×g for 5 min at 4° C. Approximately 800 ul of supernatant was transferred to a new 1.5 ml microcentrifuge tube. The supernatant (cytosol+mitochondria) was transferred to a new tube and centrifuged at 10,000 g for 20 min at 4° C. to pellet the mitochondrial fraction. After removing residual supernatant, mitochondria were resuspended in lysis buffer (100 mM Bicine pH 8.0, 0.27M Sucrose, 1 mM EDTA, 1 mM EGTA, 5 mM Na4P2O7, 100 mM Tris pH 7.5, 1% Triton X-100), containing benzonase (1:1000), HALT protease/phosphatase inhibitors (1:100), and PR-619 de-ubiquitinase inhibitor (1:1000). […] For peroxidase reaction, 50 ul of TMB reagent (Pierce #34029) was added to the wells after washing and wells were monitored closely for reaction development. […] Absorbance was measured at 450 nm using […] SpectraMax). […]

[5] = tested on: KIM-1 (kidney-injury marker 1); assay: urine KIM-1 ELISA in cisplatin-challenged mice; format: in vivo, mice (C57Bl/6); conditions: for KIM-1 (urine biomarker for kidney injury): single i.p. 10 mg/kg cisplatin, day 3 post-challenge
Protocol: Urine was collected from scruffed mice (serial collection) or directly from bladder using insulin syringe during harvest (terminal collection). KIM-1 was measured in mouse urine using R&D System's Mouse TIM-1/KIM-1/HAVCR DuoSet ELISA following manufacturer's published protocol.
Referring to FIG. 10, mice (C57Bl/6) were challenged with a single intraperitoneal dose of 10 mg/kg cisplatin or saline (not shown) and dosed by oral gavage once per day (QD) with 35985.

[6] = tested on: HeLa cells expressing a mitophagy indicator (mtKeima) protein; assay: mitophagy in HeLa cells expressing mtKeima, FACS; format: cell-based; conditions: 1 mM of FCCP and Oligomycin then specified dose of compound, FIG. 1
Protocol: Briefly, HeLa cells expressing a mitophagy indicator (mtKeima) protein were treated with […] of FCCP and Oligomycin followed by the specified dose of compound, then analyzed by FACS to quantify the percentage of cells undergoing mitophagy.

[7] = tested on: GDF15; assay: serum GDF15 ELISA in cisplatin-challenged mice; format: in vivo, mice (C57Bl/6); conditions: single i.p. 10 mg/kg cisplatin; oral gavage QD 20 mg/kg or 50 mg/kg; after 7 days; FIG. 13
Protocol: For tissue harvest, mice were anesthetized using isofluorane. Cardiac puncture was performed to withdraw blood for serum collection. Blood was deposited into serum separator tubes and left undisturbed for 30 min to 1 hr at room temperature to allow clotting prior to serum separation by centrifugation for 2 min (10,000 g, room temperature). Collected serum was transferred to Eppendorf tubes and frozen on dry ice. After cervical dislocation, left and right kidneys were extracted and frozen until analysis.
Referring to FIG. 13, mice (C57Bl/6) were challenged with a single intraperitoneal dose of 10 mg/kg cisplatin or saline and dosed by oral gavage once per day (QD) with 20 mg/kg or 50 mg/kg 35985.

[8] = tested on: HeLa cells expressing a YFP-tagged Parkin; assay: Parkin recruitment to mitochondria, longitudinal imaging; format: cell-based; conditions: 1 mM of FCCP and Oligomycin then specified dose, percentage of cells with Parkin recruited at 60 minutes, FIG. 2
Protocol: HeLa cells expressing a YFP-tagged Parkin were treated with […] of FCCP and Oligomycin followed by the specified dose of compound, then analyzed by longitudinal imaging. Percentage of cells with Parkin recruited to mitochondria at 60 minutes is shown.

C[C@@H]1CN([C@@H]2COc3cc(F)ccc3[C@H]2Nc2ncnc3[nH]c(C(F)(F)F)cc23)CCO1 [compound 41088]
cisplatin-induced weight loss ([1]; single dose cisplatin 10 mg/kg i.p., p.o., q.d. at 1.56, 3.13, 6.25 and 12.5 mg/kg, FIG. 18): reduces weight loss; also recorded: Weight loss was ameliorated

N.N.[Cl][Pt][Cl] [cisplatin, reference compound]
PINK1 protein in kidney mitochondria [2]: induction of PINK1
mitochondrial DNA (mtDNA/nucDNA ratio; ND1 vs beta actin) ([3]; C57Bl/6, single i.p. 10 mg/kg cisplatin, FIG. 4): induces reduction in mtDNA/nucDNA ratio; also recorded: significant reduction in mitochondrial DNA
pS65-Ub in kidney mitochondria ([4]; C57Bl/6, FIG. 3A): pS65-Ub increase
kidney mitochondria pS65-Ub levels ([4]; PINK1 KO mice, different times, FIG. 6, 30 mg/kg): does not induce a change in pS65 Ubiquitin; also recorded: remains unchanged

FC(F)(F)c1cc2c(N[C@H]3c4ccccc4CC[C@@H]3C3C[C@@H]4COC[C@H]4C3)ncnc2[nH]1 [compound 40270]
kidney dysfunction, KIM-1 levels ([5]; single dose cisplatin 10 mg/kg i.p., 53 mg/kg p.o., b.i.d., FIG. 17): reduces KIM-1; also recorded: Dysfunction was ameliorated

FC(F)(F)c1cc2c(N[C@@H]3CCCc4ccccc43)ncnc2[nH]1 [compound 35985]
cisplatin-mediated weight-loss ([1]; single i.p. 10 mg/kg cisplatin, 35985 oral gavage QD, FIG. 9, 10 mg/kg): ameliorates cisplatin-induced body-weight loss; also recorded: dose-dependent rescue of cisplatin-mediated weight-loss
percentage of cells undergoing mitophagy [6]: induce mitophagy in a dose dependent manner; also recorded: dose responsive increase in the percentage of cells undergoing mitophagy
mitochondrial-stress serum biomarker GDF15 (ELISA) [7]: reduces serum GDF15 levels; also recorded: reduced mitochondrial-stress serum biomarker GDF15
KIM-1 (urine biomarker for kidney injury) ([5]; 35985 oral gavage QD, FIG. 10): reduces kidney damage in cisplatin challenged mice; also recorded: dose-dependent rescue of KIM-1
cisplatin-mediated mitochondrial DNA loss ([3]; single i.p. 10 mg/kg cisplatin, oral gavage QD seven days, at 10 mg/kg and above, FIG. 12): ameliorates mtDNA loss upon cisplatin challenge; also recorded: rescued cisplatin-mediated mitochondrial DNA loss
rate of Parkin recruitment to mitochondria [8]: accelerate recruitment of Parkin to mitochondria; also recorded: dose responsive increase in the rate of Parkin recruitment to mitochondria

c1ccc2c(c1)OC[C@@H](N1CCOCC1)[C@@H]2Nc1ncnc2[nH]c(C3CC3)cc12 [compound 40180]
percentage of cells undergoing mitophagy [6]: induce mitophagy in a dose dependent manner; also recorded: dose responsive increase in the percentage of cells undergoing mitophagy
KIM-1 (urine biomarker for kidney injury) ([5]; 40180 oral gavage QD, FIG. 14): reduces KIM-1; also recorded: dose-dependent rescue of KIM-1
rate of Parkin recruitment to mitochondria [8]: accelerate recruitment of Parkin to mitochondria; also recorded: dose responsive increase in the rate of Parkin recruitment to mitochondria
